Data published in US20250311727A1, “SUBSTITUTED 2-AMINOAZINES AND SALTS THEREOF, AND USE THEREOF AS HERBICIDAL ACTIVE SUBSTANCES” (BAYER AKTIENGESELLSCHAFT, priority 2022, published 2025).

Key:
Type in all cases: in vivo
Setaria viridis [1] = test: Pre-emergence herbicide efficacy at 320 g/ha, SETVI; details: scored visually after about 3 weeks vs untreated controls, 100% = plants have died
Outline: (§1)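 Seeds were sown in sandy loam and covered with soil; WP or EC formulations were then sprayed onto the soil surface at 320 g/ha in 600 L/ha water with 0.5% additive. After about 3 weeks in the greenhouse, efficacy was scored visually as % versus untreated controls (100% = plants dead, 0% = like control).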

Amaranthus retroflexus [2] = test: Post-emergence herbicidal efficacy at 320 g/ha, AMARE; details: rated visually after about 3 weeks vs untreated controls, 100% = plants have died
Outline: (§2)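 One-leaf-stage weeds, sandy loam pots, greenhouse; foliar spray of WP/EC, 0.5% additive, 600 L/ha water; visual rating at ~3 wk, 0–100% vs untreated.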

Viola tricolor [3] = test: Post-emergence herbicidal efficacy at 80 g/ha, VIOTR; details: rated visually after about 3 weeks vs untreated controls, 100% = plants have died
Text: (§3) Unwanted plants/weeds: • ABUTH: Abutilon theophrasti • ALOMY: Alopecurus myosuroides • AMARE: Amaranthus retroflexus • DIGSA: Digitaria sanguinalis • ECHCG: Echinochloa crus-galli • KCHSC: Kochia scoparia • LOLRI: Lolium rigidum • MATIN: Matricaria inodora • POAAN: Poa annua • POLCO: Polygonum convolvulus • SETVI: Setaria viridis • STEME: Stellaria media • VERPE: Veronica persica • VIOTR: Viola tricolor A. Post-Emergence Herbicidal Efficacy at 320 g/ha
Seeds of monocotyledonous and dicotyledonous weeds and crop plants were placed in sandy loam in plastic or organic planting pots, covered with soil and cultivated in a greenhouse under controlled growth conditions. 2 to 3 weeks after sowing, the test plants were treated at the one-leaf stage. The compounds of the invention, formulated in the form of wettable powders (WP) or as emulsion concentrates (EC), were then sprayed onto the green parts of the plants as aqueous suspension or emulsion with addition of 0.5% additive at a water application rate of 600 l/ha (converted). After the test plants had been kept in the greenhouse under optimum growth conditions for about 3 weeks, the activity of the preparations was rated visually in comparison to untreated controls. For example, 100% activity=the plants have died, 0% activity=like control plants.
Tables B1 to B11 below show the effects of selected compounds of the general formula (I) according to Table 1 on various harmful plants and an application rate corresponding to 80 g/ha, which were obtained by the experimental procedure mentioned above.

Veronica persica [4] = test: Post-emergence herbicidal efficacy at 320 g/ha, VERPE; details: rated visually after about 3 weeks vs untreated controls, 100% = plants have died
Outline: as §2

Veronica persica [5] = test: Pre-emergence herbicide efficacy at 80 g/ha, VERPE
Text: as §3
(§4) Seeds of monocotyledonous and dicotyledonous weed plants and crop plants were placed in plastic or organic planting pots and covered with soil. The compounds of the invention, formulated in the form of wettable powders (WP) or as emulsion concentrates (EC), were then applied to the surface of the covering soil as aqueous suspension or emulsion with addition of 0.5% additive at a water application rate equivalent to 600 l/ha. After the treatment, the pots were placed in a greenhouse and kept under good growth conditions for the test plants. After about 3 weeks, the efficacy of the preparations was scored visually in comparison with untreated controls as percentages. For example, 100% activity=the plants have died, 0% activity=like control plants.
(§5) Tables D1 to D12 below show the effects of selected compounds of the general formula (I) according to Table 1 on various harmful plants and an application rate corresponding to 80 g/ha, which were obtained by the experimental procedure mentioned above.

Matricaria inodora = test: Pre-emergence herbicide efficacy at 320 g/ha, MATIN; details: scored visually after about 3 weeks vs untreated controls, 100% = plants have died
Text: as §3
(§6) Seeds of mono- and dicotyledonous weed plants were placed in plastic pots in sandy loam soil (doubly sown with one species each of mono- or dicotyledonous weed plants per pot) and covered with soil. The compounds of the invention, formulated in the form of wettable powders (WP) or as emulsion concentrates (EC), were then applied to the surface of the covering soil as aqueous suspension or emulsion with addition of 0.5% additive at a water application rate of 600 litres per hectare (converted). After the treatment, the pots were placed in a greenhouse and kept under good growth conditions for the test plants. After about 3 weeks, the efficacy of the preparations was scored visually in comparison with untreated controls as percentages.
(§7) For example, 100% activity=the plants have died, 0% activity=like control plants.
(§8) Tables C1 to C12 below show the effects of selected compounds of the general formula (I) according to Table 1 on various harmful plants and at an application rate corresponding to 320 g/ha, which were obtained by the trial procedure specified above.

Digitaria sanguinalis [6] = test: Pre-emergence herbicide efficacy at 320 g/ha, DIGSA; details: scored visually after about 3 weeks vs untreated controls, 100% = plants have died
Outline: as §1

Viola tricolor [7] = test: Pre-emergence herbicide efficacy at 80 g/ha, VIOTR
Outline: (§9)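 Pre-emergence test: pots sown with weed seeds, then compound (WP or EC) sprayed on the covering soil as aqueous suspension/emulsion with 0.5% additive at 600 l/ha water, here 80 g/ha. Greenhouse growth for about 3 weeks. Efficacy scored visually versus untreated controls, 0% (as control) to 100% (plants died).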

Kochia scoparia [8] = test: Pre-emergence herbicide efficacy at 320 g/ha, KCHSC; details: scored visually after about 3 weeks vs untreated controls, 100% = plants have died
Outline: as §1

Echinochloa crus-galli [9] = test: Post-emergence herbicidal efficacy at 320 g/ha, ECHCG; details: rated visually after about 3 weeks vs untreated controls, 100% = plants have died
Outline: as §2

Setaria viridis [10] = test: Pre-emergence herbicide efficacy at 80 g/ha, SETVI
Outline: as §9

Echinochloa crus-galli [11] = test: Pre-emergence herbicide efficacy at 320 g/ha, ECHCG; details: scored visually after about 3 weeks vs untreated controls, 100% = plants have died
Outline: as §1

Setaria viridis [12] = test: Post-emergence herbicidal efficacy at 320 g/ha, SETVI; details: rated visually after about 3 weeks vs untreated controls, 100% = plants have died
Outline: as §2

Abutilon theophrasti [13] = test: Post-emergence herbicidal efficacy at 320 g/ha, ABUTH; details: rated visually after about 3 weeks vs untreated controls, 100% = plants have died
Outline: as §2

Abutilon theophrasti [14] = test: Pre-emergence herbicide efficacy at 320 g/ha, ABUTH; details: scored visually after about 3 weeks vs untreated controls, 100% = plants have died
Outline: as §1

Kochia scoparia [15] = test: Pre-emergence herbicide efficacy at 80 g/ha, KCHSC; details: scored visually after about 3 weeks vs untreated controls, 100% = plants have died
Text: as §3, §4, §5

Digitaria sanguinalis [16] = test: Post-emergence herbicidal efficacy at 320 g/ha, DIGSA; details: rated visually after about 3 weeks vs untreated controls, 100% = plants have died
Outline: as §2

Amaranthus retroflexus [17] = test: Post-emergence herbicidal efficacy at 80 g/ha, AMARE; details: rated visually after about 3 weeks vs untreated controls, 100% = plants have died
Outline: (§10)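 Weeds grown in sandy loam under greenhouse conditions and sprayed post-emergence at the one-leaf stage (2–3 weeks after sowing) with WP or EC formulations plus 0.5% additive, 600 l/ha water. Activity scored visually about 3 weeks later versus untreated controls (0% = like control, 100% = plants dead).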

Stellaria media [18] = test: Pre-emergence herbicide efficacy at 320 g/ha, STEME; details: scored visually after about 3 weeks vs untreated controls, 100% = plants have died
Outline: as §1

Amaranthus retroflexus [19] = test: Pre-emergence herbicide efficacy at 80 g/ha, AMARE; details: scored visually after about 3 weeks vs untreated controls, 100% = plants have died
Outline: as §9

Amaranthus retroflexus [20] = test: Pre-emergence herbicide efficacy at 320 g/ha, AMARE; details: scored visually after about 3 weeks vs untreated controls, 100% = plants have died
Outline: as §1

Kochia scoparia [21] = test: Post-emergence herbicidal efficacy at 80 g/ha, KCHSC; details: rated visually after about 3 weeks vs untreated controls, 100% = plants have died
Outline: as §10

Poa annua [22] = test: Pre-emergence herbicide efficacy at 320 g/ha, POAAN; details: scored visually after about 3 weeks vs untreated controls, 100% = plants have died
Outline: as §1

Veronica persica [23] = test: Post-emergence herbicidal efficacy at 80 g/ha, VERPE; details: rated visually after about 3 weeks vs untreated controls, 100% = plants have died
Outline: as §10

Veronica persica [24] = test: Pre-emergence herbicide efficacy at 320 g/ha, VERPE; details: scored visually after about 3 weeks vs untreated controls, 100% = plants have died
Outline: as §1

Kochia scoparia [25] = test: Post-emergence herbicidal efficacy at 320 g/ha, KCHSC; details: rated visually after about 3 weeks vs untreated controls, 100% = plants have died
Outline: as §2

Polygonum convolvulus = test: Pre-emergence herbicide efficacy at 80 g/ha, POLCO; details: scored visually after about 3 weeks vs untreated controls, 100% = plants have died
Text: as §3, §4, §5

Digitaria sanguinalis [26] = test: Pre-emergence herbicide efficacy at 80 g/ha, DIGSA; details: scored visually after about 3 weeks vs untreated controls, 100% = plants have died
Outline: as §9

Stellaria media [27] = test: Post-emergence herbicidal efficacy at 320 g/ha, STEME; details: rated visually after about 3 weeks vs untreated controls, 100% = plants have died
Outline: as §2

Poa annua [28] = test: Post-emergence herbicidal efficacy at 320 g/ha, POAAN; details: rated visually after about 3 weeks vs untreated controls, 100% = plants have died
Outline: as §2

Lolium rigidum = test: Pre-emergence herbicide efficacy at 320 g/ha, LOLRI; details: scored visually after about 3 weeks vs untreated controls, 100% = plants have died
Text: as §3, §6, §7, §8

N#Cc1cccc(Nc2ncc(Cl)cn2)c1-n1cc(C(F)(F)F)cn1 [Example 1-38, 3-(5-Chloropyrimidin-2-ylamino)-2-(4-(trifluoromethyl)-1H-pyrazol-1-yl)benzonitrile]
100%: Pre-emergence efficacy at 320 g/ha against SETVI in % (Setaria viridis [1]) | Post-emergence efficacy at 320 g/ha against AMARE in % (Amaranthus retroflexus [2]) | Post-emergence efficacy at 80 g/ha against VIOTR in % (Viola tricolor [3]) | Post-emergence efficacy at 320 g/ha against VERPE in % (Veronica persica [4]) | Pre-emergence efficacy at 320 g/ha against MATIN in % (Matricaria inodora) | Pre-emergence efficacy at 320 g/ha against DIGSA in % (Digitaria sanguinalis [6]) | Pre-emergence efficacy against VIOTR (Viola tricolor [7]) | Post-emergence efficacy at 320 g/ha against ECHCG in % (Echinochloa crus-galli [9]) | Pre-emergence efficacy against SETVI (Setaria viridis [10]) | Pre-emergence efficacy at 80 g/ha against KCHSC in % (Kochia scoparia [15]) | Post-emergence efficacy at 80 g/ha against AMARE in % (Amaranthus retroflexus [17]) | Pre-emergence efficacy at 320 g/ha against STEME in % (Stellaria media [18]) | Pre-emergence efficacy at 80 g/ha against AMARE in % (Amaranthus retroflexus [19]) | Pre-emergence efficacy at 320 g/ha against AMARE in % (Amaranthus retroflexus [20]) | Post-emergence efficacy at 80 g/ha against KCHSC in % (Kochia scoparia [21]) | Pre-emergence efficacy at 320 g/ha against POAAN in % (Poa annua [22]) | Pre-emergence efficacy at 320 g/ha against VERPE in % (Veronica persica [24]) | Post-emergence efficacy at 320 g/ha against KCHSC in % (Kochia scoparia [25]) | Pre-emergence efficacy at 80 g/ha against POLCO in % (Polygonum convolvulus) | Pre-emergence efficacy at 80 g/ha against DIGSA in % (Digitaria sanguinalis [26]) | Post-emergence efficacy at 320 g/ha against STEME in % (Stellaria media [27])
90%: Pre-emergence efficacy against VERPE (Veronica persica [5]) | Pre-emergence efficacy at 320 g/ha against KCHSC in % (Kochia scoparia [8]) | Pre-emergence efficacy at 320 g/ha against ECHCG in % (Echinochloa crus-galli [11]) | Post-emergence efficacy at 320 g/ha against SETVI in % (Setaria viridis [12]) | Post-emergence efficacy at 320 g/ha against ABUTH in % (Abutilon theophrasti [13]) | Pre-emergence efficacy at 320 g/ha against ABUTH in % (Abutilon theophrasti [14]) | Post-emergence efficacy at 320 g/ha against DIGSA in % (Digitaria sanguinalis [16]) | Post-emergence efficacy at 80 g/ha against VERPE in % (Veronica persica [23]) | Post-emergence efficacy at 320 g/ha against POAAN in % (Poa annua [28]) | Pre-emergence efficacy at 320 g/ha against LOLRI in % (Lolium rigidum)
